Among the data in patent US8183248B2, “Substituted pyrrolo[2,3-d]pyrimidines and compositions as protein kinase inhibitors” (IRM LLC, priority 2005, dated 2012) are IC50, GI50 and inhibition values, retold here.

Assay [1] addresses T1, wild type Bcr-abl (Ba/F3 cells) (Homo sapiens, UniProt P00519).
T1 construct: expressed in transfected cells; host or cells: Ba/F3 (murine pro-B cells); the other entry of the earlier key: BCR (P11274, Breakpoint cluster region protein)
The assay is described as follows: Proliferation of Ba/F3 cells expressing wild type Bcr-abl. The class given is cell-based. The method, then:
(§1) 32D-p210 cells are plated into 96 well TC plates at a density of 15,000 cells per well. 50 μL of two fold serial dilutions of the test compound (Cmax is 40 μM) are added to each well (STI571 is included as a positive control). After incubating the cells for 48 hours at 37° C., 5% CO2, 15 μL of MTT (Promega) is added to each well and the cells are incubated for an additional 5 hours. The optical density at 570 nm is quantified spectrophotometrically and IC50 values, the concentration of compound required for 50% inhibition, determined from a dose response curve.
(§2) Compounds of the invention are tested for their antiproliferative effect on Ba/F3 cells expressing either wild type or the mutant forms of BCR-Abl (G250E, E255V, T315I, F317L, M351T) that confers resistance or diminished sensitivity to STI571. The antiproliferative effect of these compounds on the mutant-BCR-Abl expressing cells and on the non transformed cells were tested at 10, 3.3, 1.1 and 0.37 μM as described above (in media lacking IL3). The IC50 values of the compounds lacking toxicity on the untransformed cells were determined from the dose response curves obtained as describe above.

Assay [2] has as its target T2, G250E Bcr-abl (Ba/F3 cells) (Homo sapiens, UniProt P00519, G250E).
T2 construct: expressed in transfected cells; host or cells: Ba/F3 (murine pro-B cells); the other entry of the earlier key: BCR (P11274, Breakpoint cluster region protein)
The assay is described as follows: Proliferation of Ba/F3 cells expressing G250E Bcr-abl. The class given is cell-based. As for the experimental part: as §1, §2

For assay [3], the target named is T3, E255V Bcr-abl (Ba/F3 cells) (Homo sapiens, UniProt P00519, E255V).
T3 construct: expressed in transfected cells; host or cells: Ba/F3 (murine pro-B cells); the other entry of the earlier key: BCR (P11274, Breakpoint cluster region protein)
The assay is described as follows: Proliferation of Ba/F3 cells expressing E255V Bcr-abl. The class given is cell-based. As for the experimental part: as §1, §2

Assay [4] deals with T4, T315I Bcr-abl (Ba/F3 cells) (Homo sapiens, UniProt P00519, T315I).
T4 construct: expressed in transfected cells; host or cells: Ba/F3 (murine pro-B cells); the other entry of the earlier key: BCR (P11274, Breakpoint cluster region protein)
The assay is described as follows: Proliferation of Ba/F3 cells expressing T315I Bcr-abl. The class given is cell-based. The method, then:
as §1, §2

Assay [5] has as its target T5, M351T Bcr-abl (Ba/F3 cells) (Homo sapiens, UniProt P00519, M351T).
T5 construct: expressed in transfected cells; host or cells: Ba/F3 (murine pro-B cells); the other entry of the earlier key: BCR (P11274, Breakpoint cluster region protein)
Put plainly: Proliferation of Ba/F3 cells expressing M351T Bcr-abl. The class given is cell-based. As for the experimental part: as §1, §2

Another assay deals with FLT-3 (Homo sapiens, UniProt P36888, cells depend on it, form not given). The assay is described as follows: FLT3 (Cellular Assay), Ba/F3-FLT3-ITD proliferation. The class given is cell-based. Conditions: read-out: IC50 for FLT-3.
For a further assay, the target named is T6, PDGFR-β (Homo sapiens, UniProt P09619).
T6 construct: fused on or other part: P41212 (Transcription factor ETV6)
T6 sequence (P09619 600-962 limits assumed, change not shown): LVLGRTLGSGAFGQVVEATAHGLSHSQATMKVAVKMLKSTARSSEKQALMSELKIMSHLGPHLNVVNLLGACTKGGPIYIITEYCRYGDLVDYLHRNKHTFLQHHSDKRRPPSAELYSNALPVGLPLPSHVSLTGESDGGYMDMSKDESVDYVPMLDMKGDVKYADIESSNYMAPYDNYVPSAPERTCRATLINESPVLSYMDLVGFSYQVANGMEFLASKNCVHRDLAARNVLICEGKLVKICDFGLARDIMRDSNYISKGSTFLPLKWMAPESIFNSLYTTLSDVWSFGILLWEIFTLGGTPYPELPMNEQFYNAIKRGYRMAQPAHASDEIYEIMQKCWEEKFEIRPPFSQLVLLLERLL
The assay is described as follows: PDGFRβ (Cellular Assay), Ba/F3-Tel-PDGFRβ proliferation. As to conditions: read-out: IC50 for PDGFR-β. The class given is cell-based.

In the next assay the target is T7, Abl(T315L) (Homo sapiens, UniProt P00519, T315I).
T7 construct: purchased Upstate
The assay is described as follows: Upstate KinaseProfiler radio-enzymatic filter binding assay. The class given is biochemical. As to conditions: read-out: percentage inhibition Abl(T315L). As for the experimental part:
(§3) Compounds of the invention are assessed for their ability to inhibit individual members of the kinase panel. The compounds are tested in duplicates at a final concentration of 10 μM following this generic protocol. Note that the kinase buffer composition and the substrates vary for the different kinases included in the “Upstate KinaseProfiler™” panel. Kinase buffer (2.5 μL, 10×—containing MnCl2 when required), active kinase (0.001-0.01 Units; 2.5 μL), specific or Poly(Glu4-Tyr) peptide (5-500 μM or 0.01 mg/ml) in kinase buffer and kinase buffer (50 μM; 5 μL) are mixed in an eppendorf on ice. A Mg/ATP mix (10 μL; 67.5 (or 33.75) mM MgCl2, 450 (or 225) μM ATP and 1 μCi/μl [γ-^32P]-ATP (3000 Ci/mmol)) is added and the reaction is incubated at about 30° C. for about 10 minutes. The reaction mixture is spotted (20 μL) onto a 2 cm×2 cm P81 (phosphocellulose, for positively charged peptide substrates) or Whatman No. 1 (for Poly (Glu4-Tyr) peptide substrate) paper square. The assay squares are washed 4 times, for 5 minutes each, with 0.75% phosphoric acid and washed once with acetone for 5 minutes. The assay squares are transferred to a scintillation vial, 5 ml scintillation cocktail are added and ^32P incorporation (cpm) to the peptide substrate is quantified with a Beckman scintillation counter. Percentage inhibition is calculated for each reaction.

In the next assay the target is T8, Abl(m) (Mus musculus, UniProt P00520).
T8 construct: purchased Upstate
Described as above. The class given is biochemical. Conditions: read-out: percentage inhibition Abl(m). The method, then:
as §3

A further assay has as its target T9, CSK(h) (Homo sapiens, UniProt P41240).
T9 construct: purchased Upstate
Described as above. The class given is biochemical. Conditions: read-out: percentage inhibition CSK(h). The method, then: as §3

The target in a further assay is T10, Flt3(h) (Homo sapiens, UniProt P36888).
T10 construct: purchased Upstate
The description is as above. The class given is biochemical. Conditions: read-out: percentage inhibition Flt3(h). The method, then: as §3

A further assay deals with T11, JNK2α2(h) (Homo sapiens, UniProt P45984).
T11 construct: purchased Upstate
The assay is described as above. The class given is biochemical. Conditions: read-out: percentage inhibition JNK2α2(h). As for the experimental part: as §3

The target in another assay is T12, Lck(h) (Homo sapiens, UniProt P06239).
T12 construct: purchased Upstate
T12 sequence (P06239 whole entry): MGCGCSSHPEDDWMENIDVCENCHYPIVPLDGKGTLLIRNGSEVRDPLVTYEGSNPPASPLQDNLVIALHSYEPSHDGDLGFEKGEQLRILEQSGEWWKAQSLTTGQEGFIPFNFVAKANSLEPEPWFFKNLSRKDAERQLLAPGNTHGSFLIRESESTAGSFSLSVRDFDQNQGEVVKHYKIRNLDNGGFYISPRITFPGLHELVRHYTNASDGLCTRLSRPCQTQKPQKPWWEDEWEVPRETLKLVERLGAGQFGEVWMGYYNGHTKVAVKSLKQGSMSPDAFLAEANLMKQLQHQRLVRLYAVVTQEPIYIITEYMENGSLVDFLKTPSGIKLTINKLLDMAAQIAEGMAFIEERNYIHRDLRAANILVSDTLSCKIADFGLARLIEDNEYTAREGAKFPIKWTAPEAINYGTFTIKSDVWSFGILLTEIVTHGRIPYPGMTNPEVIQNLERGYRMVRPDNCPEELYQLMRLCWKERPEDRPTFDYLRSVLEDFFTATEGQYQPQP
Described as above. The class given is biochemical. Conditions: read-out: percentage inhibition Lck(h). The method, then:
as §3

Another assay concerns the target T13, MKK6(h) (Homo sapiens, UniProt P52564).
T13 construct: purchased Upstate
The description is as above. The class given is biochemical. Conditions: read-out: percentage inhibition MKK6(h). As for the experimental part: as §3

In a further assay the target is T14, Met(h) (Homo sapiens, UniProt P08581).
T14 construct: purchased Upstate
The description is as above. The class given is biochemical. Conditions: read-out: percentage inhibition Met(h). The method, then:
as §3

The next assay has as its target T15, PAK2(h) (Homo sapiens, UniProt Q13177).
T15 construct: purchased Upstate
The assay is described as above. The class given is biochemical. As to conditions: read-out: percentage inhibition PAK2(h). As for the experimental part: as §3

Another assay concerns the target T16, PKA(h) (Homo sapiens, UniProt P17612).
T16 construct: purchased Upstate
The description is as above. As to conditions: read-out: percentage inhibition PKA(h). The class given is biochemical. The method, then: as §3

The target of a further assay is T17, Ros(h) (Homo sapiens, UniProt P08922).
T17 construct: purchased Upstate
T17 sequence (P08922 28-2347): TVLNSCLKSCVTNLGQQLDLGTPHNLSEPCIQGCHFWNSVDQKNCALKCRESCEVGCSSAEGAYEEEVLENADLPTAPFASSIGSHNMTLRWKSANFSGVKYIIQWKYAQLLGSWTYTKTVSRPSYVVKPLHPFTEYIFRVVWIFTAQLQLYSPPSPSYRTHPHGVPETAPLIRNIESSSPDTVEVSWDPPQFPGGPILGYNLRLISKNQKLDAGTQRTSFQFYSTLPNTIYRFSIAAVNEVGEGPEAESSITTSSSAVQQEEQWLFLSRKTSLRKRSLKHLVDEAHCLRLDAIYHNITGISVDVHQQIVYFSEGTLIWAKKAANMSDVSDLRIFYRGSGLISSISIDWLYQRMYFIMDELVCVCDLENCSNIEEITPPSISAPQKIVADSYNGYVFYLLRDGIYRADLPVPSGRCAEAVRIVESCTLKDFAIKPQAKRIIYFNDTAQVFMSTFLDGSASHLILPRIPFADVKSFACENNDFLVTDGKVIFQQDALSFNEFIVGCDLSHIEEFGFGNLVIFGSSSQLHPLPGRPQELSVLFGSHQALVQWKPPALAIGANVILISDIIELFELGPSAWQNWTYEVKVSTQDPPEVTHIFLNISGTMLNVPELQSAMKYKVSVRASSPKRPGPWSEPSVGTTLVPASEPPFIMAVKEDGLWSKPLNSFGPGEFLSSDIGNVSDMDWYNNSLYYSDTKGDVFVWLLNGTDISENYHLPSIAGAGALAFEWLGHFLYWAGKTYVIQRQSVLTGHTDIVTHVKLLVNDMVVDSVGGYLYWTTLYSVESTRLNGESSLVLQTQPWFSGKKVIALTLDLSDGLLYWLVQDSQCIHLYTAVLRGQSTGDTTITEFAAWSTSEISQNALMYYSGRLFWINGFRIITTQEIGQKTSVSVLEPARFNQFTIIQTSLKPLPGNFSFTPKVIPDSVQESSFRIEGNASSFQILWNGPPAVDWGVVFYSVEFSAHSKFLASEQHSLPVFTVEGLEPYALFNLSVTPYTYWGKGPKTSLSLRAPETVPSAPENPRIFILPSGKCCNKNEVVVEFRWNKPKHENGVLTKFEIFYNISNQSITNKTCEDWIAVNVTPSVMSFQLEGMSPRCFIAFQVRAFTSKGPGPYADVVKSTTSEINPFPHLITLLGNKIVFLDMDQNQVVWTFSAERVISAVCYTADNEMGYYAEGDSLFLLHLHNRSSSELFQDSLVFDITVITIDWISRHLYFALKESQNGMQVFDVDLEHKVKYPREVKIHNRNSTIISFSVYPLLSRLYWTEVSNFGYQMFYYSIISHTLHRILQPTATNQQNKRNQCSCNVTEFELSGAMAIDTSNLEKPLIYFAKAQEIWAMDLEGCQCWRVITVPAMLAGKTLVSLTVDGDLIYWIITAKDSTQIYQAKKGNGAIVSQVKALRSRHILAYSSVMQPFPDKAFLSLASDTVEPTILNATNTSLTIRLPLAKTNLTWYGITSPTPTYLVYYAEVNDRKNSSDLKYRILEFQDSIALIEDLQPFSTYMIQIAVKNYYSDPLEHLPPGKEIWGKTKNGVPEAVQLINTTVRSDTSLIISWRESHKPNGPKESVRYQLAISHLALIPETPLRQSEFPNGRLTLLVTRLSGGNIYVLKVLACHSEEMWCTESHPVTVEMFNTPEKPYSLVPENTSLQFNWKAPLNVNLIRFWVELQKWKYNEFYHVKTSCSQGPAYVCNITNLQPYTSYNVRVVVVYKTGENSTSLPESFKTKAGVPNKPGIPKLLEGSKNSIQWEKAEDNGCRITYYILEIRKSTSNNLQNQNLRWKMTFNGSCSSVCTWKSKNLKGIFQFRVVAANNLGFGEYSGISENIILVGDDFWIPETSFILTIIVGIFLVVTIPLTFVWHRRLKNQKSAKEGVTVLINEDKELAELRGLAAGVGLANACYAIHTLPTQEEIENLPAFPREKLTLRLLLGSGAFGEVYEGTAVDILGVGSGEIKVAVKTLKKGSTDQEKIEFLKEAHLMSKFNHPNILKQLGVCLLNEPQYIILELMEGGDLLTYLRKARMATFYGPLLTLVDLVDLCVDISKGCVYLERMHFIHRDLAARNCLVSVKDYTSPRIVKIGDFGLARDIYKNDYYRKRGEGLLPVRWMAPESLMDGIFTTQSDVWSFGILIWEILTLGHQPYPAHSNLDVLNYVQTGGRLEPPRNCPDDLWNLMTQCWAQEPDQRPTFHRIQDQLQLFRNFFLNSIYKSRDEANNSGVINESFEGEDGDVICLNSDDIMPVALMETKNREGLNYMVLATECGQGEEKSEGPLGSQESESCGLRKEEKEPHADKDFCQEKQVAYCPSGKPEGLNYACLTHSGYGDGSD
The assay is described as above. The class given is biochemical. As to conditions: read-out: percentage inhibition Ros(h). The method, then: as §3

The target in a further assay is T18, Rsk1(h) (Homo sapiens, UniProt Q15418).
T18 construct: purchased Upstate
T18 sequence (Q15418 whole entry): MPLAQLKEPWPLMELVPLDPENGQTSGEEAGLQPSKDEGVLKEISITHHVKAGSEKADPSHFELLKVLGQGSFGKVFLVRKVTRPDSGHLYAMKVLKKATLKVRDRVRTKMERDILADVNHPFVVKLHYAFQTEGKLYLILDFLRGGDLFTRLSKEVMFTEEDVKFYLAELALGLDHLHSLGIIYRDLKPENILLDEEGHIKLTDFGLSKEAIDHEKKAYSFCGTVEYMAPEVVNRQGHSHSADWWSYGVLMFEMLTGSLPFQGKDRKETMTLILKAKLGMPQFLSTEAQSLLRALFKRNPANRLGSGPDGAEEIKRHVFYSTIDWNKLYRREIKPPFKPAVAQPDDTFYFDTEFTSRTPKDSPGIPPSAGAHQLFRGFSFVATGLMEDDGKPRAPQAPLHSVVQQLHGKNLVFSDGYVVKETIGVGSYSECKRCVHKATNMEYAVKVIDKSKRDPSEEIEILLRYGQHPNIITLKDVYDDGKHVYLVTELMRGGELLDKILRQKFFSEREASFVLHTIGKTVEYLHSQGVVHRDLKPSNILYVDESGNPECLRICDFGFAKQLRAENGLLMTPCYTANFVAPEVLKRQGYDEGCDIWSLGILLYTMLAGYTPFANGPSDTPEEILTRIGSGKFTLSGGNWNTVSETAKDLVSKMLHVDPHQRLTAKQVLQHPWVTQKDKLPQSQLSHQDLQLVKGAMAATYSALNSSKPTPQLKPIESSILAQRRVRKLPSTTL
Described as above. The class given is biochemical. As to conditions: read-out: percentage inhibition Rsk1(h). As for the experimental part: as §3

A further assay addresses T19, SAPK2p(h) (Homo sapiens, UniProt Q15759).
T19 construct: purchased Upstate
The description is as above. The class given is biochemical. Conditions: read-out: percentage inhibition SAPK2p(h). The method, then:
as §3

The target of the next assay is T20, cSRC(h) (Homo sapiens, UniProt P12931).
T20 construct: purchased Upstate
T20 sequence (P12931 whole entry): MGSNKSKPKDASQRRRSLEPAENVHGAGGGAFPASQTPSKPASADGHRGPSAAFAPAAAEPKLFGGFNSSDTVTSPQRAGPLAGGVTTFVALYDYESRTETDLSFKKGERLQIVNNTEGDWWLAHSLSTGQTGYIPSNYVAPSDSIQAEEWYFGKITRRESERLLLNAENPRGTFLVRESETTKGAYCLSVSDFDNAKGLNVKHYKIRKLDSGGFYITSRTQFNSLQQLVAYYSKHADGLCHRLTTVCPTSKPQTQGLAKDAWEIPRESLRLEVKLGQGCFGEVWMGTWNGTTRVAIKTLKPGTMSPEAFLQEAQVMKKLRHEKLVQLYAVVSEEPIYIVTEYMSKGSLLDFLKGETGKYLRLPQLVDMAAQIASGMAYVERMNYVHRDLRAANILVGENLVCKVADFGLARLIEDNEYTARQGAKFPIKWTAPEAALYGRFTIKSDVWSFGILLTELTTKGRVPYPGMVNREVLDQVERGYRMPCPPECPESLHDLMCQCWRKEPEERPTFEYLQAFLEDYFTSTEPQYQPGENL
The assay is described as above. The class given is biochemical. Conditions: read-out: percentage inhibition cSRC(h). The method, then:
as §3

T9 sequence (P41240 whole entry): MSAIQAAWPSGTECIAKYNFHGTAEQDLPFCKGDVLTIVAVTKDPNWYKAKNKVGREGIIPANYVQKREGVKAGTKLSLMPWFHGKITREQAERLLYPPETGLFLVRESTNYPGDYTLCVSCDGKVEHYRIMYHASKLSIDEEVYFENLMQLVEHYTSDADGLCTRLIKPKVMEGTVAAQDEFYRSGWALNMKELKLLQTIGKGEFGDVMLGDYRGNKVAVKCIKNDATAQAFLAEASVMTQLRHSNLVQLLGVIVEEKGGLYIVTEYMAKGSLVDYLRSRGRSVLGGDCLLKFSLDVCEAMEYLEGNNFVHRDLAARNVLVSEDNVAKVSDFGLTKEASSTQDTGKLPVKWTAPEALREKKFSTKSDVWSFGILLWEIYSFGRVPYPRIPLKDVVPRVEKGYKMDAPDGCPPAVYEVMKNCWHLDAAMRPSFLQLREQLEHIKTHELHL

For the molecule `CCN1CCN(Cc2ccc(NC(=O)c3ccc(C)c(NC(=O)N(C)c4ncnc5[nH]ccc45)c3)cc2C(F)(F)F)CC1` [Example 4, N-[4-(4-Ethyl-piperazin-1-ylmethyl)-3-trifluoromethyl-phenyl]-4-methyl-3-[3-methyl-3-(7H-pyrrolo[2,3-d]pyrimidin-4-yl)-ureido]-benzamide], the IC50 in [1], in [2], in [3], in assay [4] and in assay [5] was < 5 nM throughout. Also, the results for the GI50 at FLT-3 and on PDGFR-β were 15 nM and 3.8 nM, respectively. Moreover, the inhibition at 10 µM on Abl(T315L) is 98%; on Abl(m), 98%; on CSK(h), 100%; at Flt3(h) it was 96%; at JNK2α2(h), 99%; on Lck(h), 100%. The inhibition at 10 µM at MKK6(h) was 98%; on Met(h) it was 70%; at PAK2(h), 62%; on PKA(h), 92%; on Ros(h), 62%; on Rsk1(h), 95%. The inhibition at 10 µM was determined as 85% at SAPK2p(h) and 99% at cSRC(h).

For orientation: IC50 means the concentration that gives 50% inhibition. The low end stands for higher potency, the high end for lower potency. As a reminder, the inhibition is the share of the control response that was lost under treatment.
